Columns and labels:
Botrytis cinerea = experiment: Comparison with the prior art: C1 activity against gray mold pathogen in the microtiter test; type: cell-based; conditions: day 7 after inoculation, 405 nm
Phakopsora pachyrhizi = experiment: Curative activity against soybean rust (greenhouse, Example G1); type: in vivo; conditions: soybean seedlings, curative spray 300 ppm two days after inoculation, assessed after further 10 days; untreated 90% infected
Procedure: The active compounds were prepared separately as a stock solution comprising 25 mg of active compound which was made up to 10 ml using a mixture of acetone and/or DMSO and the emulsifier Uniperol® EL (wetting agent having emulsifying and dispersing action based on ethoxylated alkylphenols) in a volume ratio of solvent/emulsifier of 99/1. The mixture was then made up to 100 ml with water. This stock solution was diluted with the solvent/emulsifier/water mixture described to the active compound concentration stated below. Alternatively, the active compounds were used as commercially finished formulation and diluted with water to the stated active compound concentration.
Curative activity against soybean rust caused by Phakopsora pachyrhizi Leaves of potted soybean seedlings were inoculated with a spore suspension of soybean rust (Phakopsora pachyrhizi). The pots were then placed in a chamber with high atmospheric humidity (90 to 95%) and at 23 to 27° C. for 24 hours. During this time, the spores germinated and the germ tubes penetrated into the leaf tissue. The infected plants were then cultivated further in a greenhouse at temperatures between 23 and 27° C. and 60 to 80% relative atmospheric humidity. […] The extent of the rust fungus development on the leaves was then determined visually in % infection.

SMILES	Growth (%) at 8 ppm C1 (Botrytis cinerea) [%]	rust fungus development on the leaves in % infection (Phakopsora pachyrhizi) [%]
CC(C)(C)C(O)C(C/C=C/c1ccccc1F)n1cncn1 (stereo not drawn)	16	–
CC(=CCC(C(O)C(C)(C)C)n1cncn1)c1ccc(F)cc1F (mixture of isomers) [I.A9]	–	0
CC(C)(C)C(O)C(C/C=C/c1ccccc1)n1cncn1 (stereo not drawn) [reference compound]	84	–

Source: patent US20110177950A1, “Imidazole and Triazole Compounds, Their Use and Agents Containing the Same” (priority 2008, published 2011)
